Molecular target: T1, Angiotensin-II-Receptor (Rattus norvegicus, UniProt P25095)
T1 construct: The tissue (rat's lung) is homogenised in Tris buffer; from tissue; host or cells: rat lung homogenate
T1 sequence (P25095 1-359): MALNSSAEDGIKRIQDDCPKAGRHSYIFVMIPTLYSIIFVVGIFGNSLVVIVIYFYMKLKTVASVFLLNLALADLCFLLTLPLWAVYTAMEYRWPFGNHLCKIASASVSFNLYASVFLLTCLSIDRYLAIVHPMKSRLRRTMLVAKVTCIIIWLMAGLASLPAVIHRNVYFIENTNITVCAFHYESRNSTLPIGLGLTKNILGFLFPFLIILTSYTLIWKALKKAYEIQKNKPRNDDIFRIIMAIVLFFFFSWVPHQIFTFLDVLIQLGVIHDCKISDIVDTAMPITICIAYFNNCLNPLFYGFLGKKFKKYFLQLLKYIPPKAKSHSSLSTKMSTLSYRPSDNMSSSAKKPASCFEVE
Assay: Angiotensin-II-Receptor Bonding ([125I]-angiotensin-II displacement, rat's lung homogenate)
Type: binding
Conditions: 50 pM [125I]-angiotensin-II, 60 minutes at 37° C., pH 7.40
Protocol: Description of Method: Angiotensin-II-Receptor Bonding
The tissue (rat's lung) is homogenised in Tris buffer (50 mMol Tris, 150 mMol NaCl, 5 mMol EDTA, pH 7.40) and centrifuged twice for 20 minutes each time at 20,000×g. The finished pellet is resuspended in incubation buffer (50 mMol Tris, 5 mMol MgCl2, 0.2% BSA, pH 7.40) 1:75, based on the moist weight of the tissue. Each 0.1 ml of homogenate is incubated for 60 minutes at 37° C. with 50 pM [^125 I]-angiotensin-II (NEN, Dreieich, FRG) and increasing concentrations of the test substance in a total volume of 0.25 ml. The incubation is ended by rapid filtration through glass fibre filter mats. The filters are each washed with 4 ml of ice cold buffer (25 mMol Tris, 2.5 mMol MgCl2, 0.1% BSA, pH 7.40). The bound radioactivity is measured in a gamma-counter. The corresponding IC50 value is determined from the dosage-activity curve.
Substances A to H show the following IC50 values in the test described: […]

| SMILES | IC50 [nM] |
| --- | --- |
| CCc1nc2c(C)cc(Nc3c(N(C)C)c(=O)c3=O)cc2n1Cc1ccc(-c2ccccc2C(=O)O)cc1 [Substance G, 4'-[[2-ethyl-4-methyl-6-[(2-dimethylamino-3,4-dioxo-1-cyclobuten-1-yl) -amino]-1H-benzimidazol-1-yl]-methyl]-biphenyl-2-carboxylic acid] | 17 |
| CCc1nc2c(C)cc(NC(=NS(C)(=O)=O)N(C)C)cc2n1Cc1ccc(-c2ccccc2-c2nnn[nH]2)cc1 [Substance H, 4'-[[2-ethyl-4-methyl-6-(3,3-dimethyl-2-methylsulphonyl-guanidino) -1H-benzimidazol-1-yl]methyl]-2-(1H-tetrazol-5-yl)-biphenyl] | 4 |
| CCCc1nc2c(C)cc(NC(=C[N+](=O)[O-])N(C)C)cc2n1Cc1ccc(-c2ccccc2C(=O)O)cc1 [Substance D, 4'-[[2-n-propyl-4-methyl-6-(1-dimethylamino-2-nitro-etheneamino) -1H-benzimidazol-1-yl]methyl]-biphenyl-2-carboxylic acid] | 13 |
| CCCc1nc2c(C)cc(NC(=C[N+](=O)[O-])N(C)C)cc2n1Cc1ccc(-c2ccccc2-c2nnn[nH]2)cc1 [Substance F, 4'-[[2-n-propyl-4-methyl-6-(1,1-dimethylamino-2-nitro-etheneamino) -1H-benzimidazol-1-yl]-methyl]-2-(1H-tetrazol-5-yl)-biphenyl] | 2 |
| CCCc1nc2c(C)cc(NC(=NC#N)N(C)C)cc2n1Cc1ccc(-c2ccccc2-c2nnn[nH]2)cc1 [Substance B, 4'-[[2-n-propyl-4-methyl-6-(2-cyano-3,3-dimethyl-guanidino) -1H-benzimidazol-1-yl]-methyl]-2-(1H-tetrazol-5-yl)-biphenyl] | 3 |

Other lines, results leading:

| IC50 [nM] | SMILES |
| --- | --- |
| 56 | CCCc1nc2c(C)cc(NC(=NS(N)(=O)=O)NC)cc2n1Cc1ccc(-c2ccccc2C(=O)O)cc1 [Substance E, 4'-[[2-n-propyl-4-methyl-6-(3-methyl-2-amidosulphonylguanidino) -1H-benzimidazol-1-yl]methyl]-biphenyl-2-carboxylic acid] |
| 64 | CCCc1nc2c(C)cc(NC(=C(C#N)C#N)N(C)C)cc2n1Cc1ccc(-c2ccccc2C(=O)O)cc1 [Substance C, 4'-[[2-n-propyl-4-methyl-6-(2,2-dicyano-1-dimethylamino-etheneamino) -1H-benzimidazol-1-yl]-methyl]-biphenyl-2-carboxylic acid] |
| 11 | CCCc1nc2c(C)cc(NC(=NC#N)NC)cc2n1Cc1ccc(-c2ccccc2C(=O)O)cc1 [Substance A, 4'-[[2-n-Propyl-4-methyl-6-(2-cyano-3-methyl-guanidino)-1H-benzimidazol-1-yl]-methyl]-biphenyl-2-carboxylic acid] |

From patent US5521177A, “Benzimidazoles, pharmaceutical compositions containing these compounds and processes for preparing them” (Dr. Karl Thomae GmbH, priority 1992, dated 1996)
